Source: PMC9175492 (Molecular pharmaceutics, 2022)
Numbered stars: 1 amine (or outer) side, 2 acyl side, 3 side chain; on linkers, the order of the positions; unused ones are H or OH. Bridge positions count the residues as written; N and C are the ends. Square brackets hold non-standard residues; d marks the D form. Peptide text beside a SMILES is read from it. I, II: the chains in the order shown. X2 = NC(=O)[C@H](CCCCNC(=O)COCCOCCN[*:1])N[*:2]; 2Nal = N[C@@H](Cc1ccc2ccccc2c1)C(=O)O; Bta = N[C@@H](Cc1csc2ccccc12)C(=O)O

What was measured:
[1] = test system: intracellular Keap1-Nrf2 interaction, ARE reporter-HepG2 cells; experiment: ARE luciferase reporter assay; format: cell-based; conditions: 18 h, 0% FBS, n = 5; for Increase of luciferase activity: 0.31 μM; for Maximal induction of luciferase expression: highest concentration tested (5 μM)
[2] = ratio of cytosolic versus extracellular concentration; cited from earlier work
HeLa cells [3] = experiment: Apparent endosomal escape efficiency; format: cell-based, human; conditions: reference line, 10% or 1% FBS; defined as 100%
HeLa cells [4] = experiment: MTT cell viability assay; format: cell-based, human; conditions: 72 h, DMEM 10% FBS
[5] = test system: HeLa (human cervical cancer) cells; conditions: 10% fetal bovine serum; cited from earlier work

CC(C)C[C@@H]1NC(=O)[C@H](Cc2ccccc2)NC(=O)[C@H](CCC(=O)O)NC(=O)CNC(=O)[C@H]([C@@H](C)O)NC(=O)[C@H](CCC(=O)O)NC(=O)[C@@H]2CCCN2C(=O)[C@H](CC(=O)O)NC(=O)[C@H](CC(C)C)NC(=O)[C@H](CCC(=O)NCCOCCOCC(=O)NCCCC[C@H](NC(=O)CC[C@@H]2NC(=O)[C@@H](CCCNC(=N)N)NC(=O)[C@H](CCCNC(=N)N)NC(=O)[C@@H](CCCNC(=N)N)NC(=O)[C@H](CCCNC(=N)N)NC(=O)[C@H](Cc3csc4ccccc34)NC(=O)[C@@H](Cc3ccccc3)NC(=O)[C@H](Cc3ccccc3)NC2=O)C(N)=O)NC(=O)CNC1=O [CPP12-2-P1] (I: cyclo(FLGELDPETGE) / II: cyclo(F[dF][Bta]R[dR]R[dR]E); linker I:4-II:8 via X2)
Increase of luciferase activity [1]: ~ 2 fold | Maximal induction of luciferase expression [1]: three- to four-fold

N=C(N)NCCC[C@@H]1NC(=O)[C@H](Cc2ccc3ccccc3c2)NC(=O)[C@@H](Cc2ccccc2)NC(=O)[C@H](Cc2ccccc2)NC(=O)[C@H](CCC(N)=O)NC(=O)[C@@H](CCCNC(=N)N)NC(=O)[C@H](CCCNC(=N)N)NC(=O)[C@@H](CCCNC(=N)N)NC1=O [CPP12, cyclo(Phe-D-Phe-Nal-Arg-D-Arg-Arg-D-Arg-Gln)] (cyclo([2Nal]R[dR]R[dR]QF[dF]))
Cytosolic entry efficiency [2]: 120% | Apparent Endosomal Escape Efficiency (γ, %) (HeLa cells [3]): 100% | Loss of viability of HeLa cells (MTT) (HeLa cells [4]; at ⩾550 μM concentration (so in the source)): ~ 40% | Viability of HeLa cells (MTT) (HeLa cells [4]; up to 25 μM): did not reduce the viability | Decrease of cytosolic entry efficiency in the presence of 10% FBS [5]: 25 fold

CC(C)C[C@@H]1NC(=O)[C@H](Cc2ccccc2)NC(=O)[C@H](CCC(=O)O)NC(=O)CNC(=O)[C@H]([C@@H](C)O)NC(=O)[C@H](CCC(=O)O)NC(=O)[C@@H]2CCCN2C(=O)[C@H](CC(=O)O)NC(=O)[C@H](CC(C)C)NC(=O)[C@H](CCC(=O)NCCOCCOCC(=O)NCCCC[C@H](NC(=O)CC[C@@H]2NC(=O)[C@@H](CCCNC(=N)N)NC(=O)[C@H](CCCNC(=N)N)NC(=O)[C@@H](CCCNC(=N)N)NC(=O)[C@H](CCCNC(=N)N)NC(=O)[C@H](Cc3ccc4ccccc4c3)NC(=O)[C@@H](Cc3ccccc3)NC(=O)[C@H](Cc3ccccc3)NC2=O)C(N)=O)NC(=O)CNC1=O [CPP12-P1] (I: cyclo(FLGELDPETGE) / II: cyclo(F[dF][2Nal]R[dR]R[dR]E); linker I:4-II:8 via X2)
Increase of luciferase activity [1]: did not have significant effect | Maximal induction of luciferase expression [1]: three- to four-fold

CC(C)C[C@@H]1NC(=O)[C@H](Cc2ccccc2)NC(=O)[C@H](CCC(=O)O)NC(=O)CNC(=O)[C@H]([C@@H](C)O)NC(=O)[C@H](CCC(=O)O)NC(=O)[C@@H]2CCCN2C(=O)[C@H](CC(=O)O)NC(=O)[C@H](CC(C)C)NC(=O)[C@H](CCC(N)=O)NC(=O)CNC1=O [Peptide P1]
Increase in luciferase activity ([1]; up to 5 μM): did not result in significant increase
